# Assay results taken from patent US10730826B2, “Ketone inhibitors of lysine gingipain” (CORTEXYME, INC., priority 2016, dated 2020).
# Where two headings read alike, the source gives them in different places.
# Legend:
# Cathepsin L = Cathepsin L (Homo sapiens (Human), UniProt P07711); assay: Cathepsin L inhibition assay; assay type: biochemical; settings: for IC50: read-out: IC50 (nM) CatL
# Protocol: (§1) The capacities of compounds of the present invention to inhibit the activity of cathepsins B, H, K, L, and S were measured in similar assays. Boc-Leu-Arg-Arg-AMC (20 μM) in sodium acetate buffer (50 mM, pH 5.5) containing DTT (1 mM) and EDTA (2 mM) was used for the Cathepsin B assay. L-Arg-AMC (20 μM) in sodium acetate buffer (50 mM, pH 5.5) containing DTT (1 mM) and EDTA (2 mM) was used for the Cathepsin H assay. Z-Phe-Arg-AMC (10 μM) in HEPES buffer (50 mM, pH 7.4) containing DTT (2.5 mM) and EDTA (1 mM) was used for the Cathepsin K assay. Z-Phe-Arg-AMC (20 μM) in sodium acetate buffer (50 mM, pH 5.5) containing DTT (1 mM) and EDTA (2 mM) was used for the Cathepsin L assay. Z-Leu-Arg-AMC (10 μM) in sodium acetate buffer (25 mM, pH 4.5) containing DTT (2.5 mM) and NaCl (50 mM) was used for the Cathepsin S assay. The capacities of the compounds to inhibit the activity of cathepsins F, V, and Z were also measured.
# (§2) Further assays to measure the inhibitory activity of compounds of the present invention against Kgp and cathepsins B, H, K, L, and S were conducted as described in Example 66. The capacities of the compounds to inhibit the activity of cathepsins F, V, and Z were also measured.
# Cathepsin K = Cathepsin K (Homo sapiens (Human), UniProt P43235); assay: Cathepsin K inhibition assay; assay type: biochemical; settings: for IC50: read-out: IC50 (nM) CatK
# Protocol: as §1, §2
# Cathepsin B = Cathepsin B (Homo sapiens (Human), UniProt P07858); assay: Cathepsin B inhibition assay; assay type: biochemical; settings: for IC50: read-out: IC50 (nM) CatB
# Protocol: as §1, §2
# Cathepsin H = Cathepsin H (Homo sapiens (Human), UniProt P09668); assay: Cathepsin H inhibition assay; assay type: biochemical
# Protocol: as §1, §2
# Cathepsin S = Cathepsin S (Homo sapiens (Human), UniProt P25774); assay: Cathepsin S inhibition assay; assay type: biochemical; settings: for IC50: read-out: IC50 (nM) CatS
# Protocol: as §1, §2
# lysine gingipain (Kgp) [1] = assay: biochemical; assay type: biochemical, Porphyromonas gingivalis; settings: as compared to reference compound 73
# Protocol: (§3) The specific assay conditions were as follows. Buffer: pH=7.5, 100 mM Tris-HCl, 75 mM NaCl, 2.5 mM CaCl2), 10 mM cysteine, 1% DMSO after all additions. Protein: 0.1 nM Kgp, isolated from culture of Porphyromonas gingivalis, as described by Pike et al. (J. Biol. Chem. 1994, 269(1), 406), and Potempa and Nguyen (Current Protocols in Protein Science. 2007, 21.20.1-21.20.27). Fluorogenic substrate: 10 μM Z-His-Glu-Lys-MCA. Time=90 minutes. Temperature=37° C.
# as §2
# lysine gingipain (Kgp) [2] = target: lysine gingipain (Kgp) (Porphyromonas gingivalis (Bacteroides gingivalis), UniProt P72194); assay: biochemical; assay type: biochemical; settings: IC50 (nM) Kgp
# Protocol: as §3, §2
Compound,IC50 (Cathepsin L; Table 3),IC50 (Cathepsin K; Table 3),IC50 (Cathepsin B; Table 3),IC50 (Cathepsin S; Table 3),IC50 (lysine gingipain (Kgp) [2]; Table 3),IC50 (lysine gingipain (Kgp) [2]; Table 4),other results
NCCCC[C@H](NC(=O)C1CCCC1)C(=O)COc1c(F)ccc(F)c1F (racemic) [1a - non-racemic],4680 nM,170 nM,380 nM,29500 nM,,,"IC50 (Cathepsin H; Table 3, read-out: IC50 (nM) CatH): 560 nM"
"NCCCC[C@H](NC(=O)C1CCCC1)C(=O)COc1c(F)cccc1F [Compound 2, (S)—N-(7-amino-1-(2,6-difluorophenoxy)-2-oxoheptan-3-yl)cyclopentanecarboxamide]",,,,,,,CatL IC50 relative to reference compound 73 (Cathepsin L; ratio to IC50 of compound 73): more than 100 times; CatK IC50 relative to reference compound 73 (Cathepsin K; ratio to IC50 of compound 73): more than 100 times; selectivity for Kgp over endogenous cathepsins (lysine gingipain (Kgp) [1]): increased selectivity; CatB IC50 relative to reference compound 73 (Cathepsin B; ratio to IC50 of compound 73): more than 20 times; CatH IC50 relative to reference compound 73 (Cathepsin H; ratio to IC50 of compound 73): more than ten times higher; CatS IC50 relative to reference compound 73 (Cathepsin S; ratio to IC50 of compound 73): more than ten times higher
NCCCCC(NC(=O)C1CCCC1)C(=O)COc1ccccc1F (stereo not shown) [Compound 3a],> 100000 nM,> 100000 nM,52200 nM,> 100000 nM,0.64 nM,,
NCCCCC(NC(=O)C1CCCC1)C(=O)COc1cc(F)cc(F)c1F (stereo not shown) [Compound 4a],> 100000 nM,> 100000 nM,2640 nM,> 100000 nM,0.07 nM,,
NCCCCC(NC(=O)C1CCCC1)C(=O)COc1cccc(F)c1F (stereo not shown) [Compound 5a],> 100000 nM,> 100000 nM,21500 nM,> 100000 nM,0.15 nM,,
NCCCCC(NC(=O)C1CCCC1)C(=O)COc1cc(F)ccc1F (stereo not shown) [Compound 6a],> 100000 nM,> 100000 nM,20300 nM,42800 nM,0.19 nM,,
"NCCCC[C@H](NC(=O)C1CCCC1)C(=O)COc1cccc(F)c1 [Compound 7, (S)—N-(7-amino-1-(3-fluorophenoxy)-2-oxoheptan-3-yl)cyclopentanecarboxamide]",,,,,,,selectivity for Kgp over endogenous cathepsins (lysine gingipain (Kgp) [1]): increased selectivity
NCCCCC(NC(=O)C1CCCC1)C(=O)COc1cccc(F)c1 (stereo not shown) [Compound 7a],5530 nM,20200 nM,49600 nM,24100 nM,1.3 nM,1.3 nM,IC50 (Cathepsin L; Table 4): > 10000 nM; IC50 (Cathepsin K; Table 4): > 10000 nM; IC50 (Cathepsin B; Table 4): > 10000 nM; IC50 (Cathepsin S; Table 4): > 10000 nM
NCCCCC(NC(=O)C1CCCC1)C(=O)COc1cc(F)cc(F)c1 (stereo not shown) [Compound 8a],> 100000 nM,> 100000 nM,68300 nM,> 100000 nM,0.34 nM,,
[N-]=[N+]=Nc1cccc(C(=O)NC(CCCCN)C(=O)COc2c(F)cccc2F)c1 (stereo not shown) [Compound 12a],,,,,0.08 nM,,
CSCC(=O)C(CCCCN)NC(=O)C1CCCC1 (stereo not shown) [Compound 16a],,,,,> 100 nM,,
NCCCCC(NC(=O)C1CCCC1)C(=O)COCC(F)(F)F (stereo not shown) [Compound 17a],,,,,> 100 nM,,
"NCCCC[C@H](NC(=O)C1CCCC1)C(=O)COC(C(F)(F)F)C(F)(F)F [Compound 18, (S)—N-(7-amino-1-((1,1,1,3,3,3-hexafluoropropan-2-yl)oxy)-2-oxoheptan-3-yl)cyclopentanecarboxamide]",,,,,,,selectivity for Kgp over endogenous cathepsins (lysine gingipain (Kgp) [1]): far more selective
CN(C)CC(=O)C(CCCCN)NC(=O)C1CCCC1 (stereo not shown) [Compound 19a],,,,,> 100 nM,,
CS(=O)(=O)CC(=O)C(CCCCN)NC(=O)C1CCCC1 (stereo not shown) [Compound 20a],,,,,> 100 nM,,
NCCCCC(NC(=O)c1cccc(F)c1)C(=O)COc1c(F)cccc1F (stereo not shown) [Compound 26a],,,,,,0.09 nM,
NCCCCC(NC(=O)c1cccc(OCCF)c1)C(=O)COc1c(F)cccc1F (stereo not shown) [Compound 27a],,,,,,0.27 nM,
NCCCCC(NC(=O)c1cccc(F)n1)C(=O)COc1c(F)cccc1F (stereo not shown) [Compound 28a],,,,,,0.34 nM,
NCCCCC(NC(=O)c1ccc(F)nc1)C(=O)COc1c(F)cccc1F (stereo not shown) [Compound 29a],,,,,,0.31 nM,
NCCCCC(NC(=O)c1cccc(OCCCF)c1)C(=O)COc1c(F)cccc1F (stereo not shown) [Compound 30a],,,,,,0.21 nM,
NCCCCC(NC(=O)c1ccnc(F)c1)C(=O)COc1c(F)cccc1F (stereo not shown) [Compound 31a],,,,,,0.15 nM,
NCCCCC(NC(=O)c1cccnc1F)C(=O)COc1c(F)cccc1F (stereo not shown) [Compound 32a],,,,,,0.08 nM,
[N-]=[N+]=Nc1cccc(C(=O)NC(CCCCN)C(=O)COc2c(F)cccc2F)c1 (stereo not shown) [Compound 33a],,,,,,0.08 nM,
